# Results taken from patent publication US8017350B2, “Glimepiride- and insulin-induced glycosylphosphatidylinositol-specific phospholipase C regulation” (Sanofi-Aventis Deutschland GmbH, priority 2004, dated 2011).
# How the values were obtained:
# [1] = test system: lipolysis, rat adipocytes; experiment: Isoproterenol-induced lipolysis in rat adipocytes; type: cell-based; details: GPI-2350 50 μM
# Description: Electroporation was performed as described in “Müller, G. et al., (2000) Mol. Cell. Biol. 20: 4708-4723”. Lipolysis was determined as release of glycerol or fluorescent NBD-FA from prelabeled and isoproterenol-stimulated adipocytes as described in “Müller, G. et al., (2003) Biochimie 85: 1245-1256”. Gce1 was detected by photolabeling of solubilized plasma membranes or hc/lcDIGs (10-50 μg protein) with 8-N3—[^32P]cAMP and subsequent phosphorimaging as described in “Müller, G. et al., (1994) Biochemistry 33: 12149-12159”. 5′-Nuc, aP and AChE activities were measured according to “Eliakim, R. et al., (1990) Biochim. Biophys. Acta 1355: 293-302”. Protein was determined using the BCA protein determination kit from Pierce (Rockford, Ill.) and BSA as calibration standard. SDS-PAGE was performed using precast gels (Novex, San Diego, Calif.; 10% Bis-Tris resolving gel, morpholinopropanesulfonic acid-SDS running buffer). Lumiimages were evaluated on a LumiImager using LumiImager software (Roche Diagnostics). Phosphor- and fluorescence images were processed and quantified using the Storm 860 PhosphorImager system (Molecular Dynamics, Gelsenkirchen, Germany). Figures were constructed using the ADOBE PHOTOSHOP software (Adobe Systems, Mountain View, Calif.). […]
# [2] = test system: GPI-proteins 5′-Nuc, Gce1 and aP in isolated rat adipocytes; experiment: localization of lipolytically cleaved and uncleaved GPI-proteins at hcDIGs, IcDIGs and total plasma membranes (TX-114 partitioning); type: cell-based
# [3] = test system: rat liver PI-PLC; experiment: mammalian PI-PLC assay; type: biochemical; details: 50 μM
# Description: Hormone-sensitive lipase (HSL) and lipoprotein lipase (LPL) were measured using a radiolabeled triolein droplet emulsion as described in “Vertesy et al., (2002) Journal Antibiotics 55:480-494”. Pancreatic lipase (PL) was determined by incubation of 0.25 mmol tributyrin in 2 ml of 5 mM Tris/HCl (pH 6.5), 6 mM sodium taurodeoxycholate, 150 mM NaCl, 1 mM CaCl2 with porcine PL and colipase in the same buffer using a recording pH stat (stirring at 1000 rpm at 25° C.) with the pH adjusted to 6.5. PC-PLC was assayed by incubation of 0.2 ml of 10 mM dipalmitoyllecithin, 0.1 ml of 10 mM SDC and 0.1 ml of 0.03 M CaCl2 with bacterial PC-PLC (in 50 mM Tris/HCl, pH 7.5, 0.1% BSA) for 10 min at 37° C. The reaction was terminated by addition of 0.1 ml of 50% TCA and subsequently of 2.5 ml of […]. After centrifugation (1500×g, 15 min), 0.2-ml portions of the upper methanol/water phase (˜1.33 ml) were removed, supplemented with 0.5 ml of 60% HClO4, then heated at 170° C. for 1 h and finally analyzed for inorganic phosphate. Mammalian PI-PLC was measured by incubation of 0.1 ml of 10 mM PI, 0.1 ml of 0.8% sodium deoxycholate, 0.1% BSA, 0.2 ml of 100 mM sodium borate (pH 7.5) and rat liver PI-PLC for 20 min at 37° C. The reaction was terminated and further processed as described for the PC-PLC. […] Radioactive phosphatidic acid was detected by phosphorimaging. […]
# [4] = amphiphilic version in hcDIGs of basal adipocytes set at 100, GPI-2350 50 μM, insulin 10 nM, glimepiride 20 μM
structure (smiles),measurement,setting,value
"CCCCCCCCCCCCP1(=O)O[C@@H]2[C@H](O)[C@@H](O)[C@H](O)[C@@H](O)[C@@H]2O1 (some centres unmarked) [GPI-2350, myo-inositol-1,2-cyclo-dodecylphosphonic acid]",glimepiride inhibition of lipolysis with GPI-2350,[1],to lower than control values
same,effect on insulin/glimepiride-induced increase in hydrophilic GPI-proteins in plasma membranes,[2]; 50 μM,completely blocked
same,aP hydroph. IcDIGs,[2]; [4],2 ± 2 arb. units
same,aP hydroph. hcDIGs,[2]; [4],10 ± 1 arb. units
same,effect on PI-PLC,[3],not significantly affected
